Test results from patent publication US20220235014A1, “PROCESS FOR THE PREPARATION OF HIGHLY PURE ERLOTINIB HYDROCHLORIDE” (SHIVALIK RASAYAN LIMITED, priority 2021, published 2022).
Read-outs that look alike come from different tables or passages of the source.

[1] = 1M storage, table does not say which condition (30° C./65% or 40° C./75% RH)
[2] = 2M storage, table does not say which condition (30° C./65% or 40° C./75% RH)
[3] = 3M storage, table does not say which condition (30° C./65% or 40° C./75% RH)
[4] = 6M storage, table does not say which condition (30° C./65% or 40° C./75% RH)
[5] = 9M storage, table does not say which condition (30° C./65% or 40° C./75% RH)

Assay (by HPLC; on anhydrous basis) [1]: 99.19% w/w
Moisture Content (by KF method) [1]: 0.24% w/w
Assay (by HPLC; on anhydrous basis) [2]: 101.56% w/w
Moisture Content (by KF method) [2]: 0.26% w/w
Assay (by HPLC; on anhydrous basis) [3]: 101.41% w/w
Moisture Content (by KF method) [3]: 0.21% w/w
Assay (by HPLC; on anhydrous basis) [4]: 99.99% w/w
Moisture Content (by KF method) [4]: 0.17% w/w
Assay (by HPLC; on anhydrous basis) [5]: 100.40% w/w
Moisture Content (by KF method) [5]: 0.42% w/w
HPLC purity after 9 months stability (9 months): exceeding 99.8 % w/w by HPLC
Assay (by HPLC; on anhydrous basis) (Initial, limit >99.8%): 100.84% w/w
Moisture Content (by KF method) (Initial, limit not more than 0.5% w/w): 0.17% w/w
time over which the crystalline form was stable under storage (storage at 30° C./65±5%): up to 12 months
time over which the crystalline form was stable under storage (storage at 40° C./75±5%): up to 12 months
Compound: C#Cc1cccc(Nc2ncnc3cc(OCCOC)c(OCCOC)cc23)c1.Cl [Form SEA, N-(3-ethynylphenyl)-6,7-bis (2-methoxy ethoxy)-4-quinazolinamine hydrochloride]
